Data set [1] in a line: Modulatory activity at P-gp assessed as doxorubicin IC50 in human K562/DOX cells at 1 uM after 72 hrs by MTT assay (Rvb doxorubicin alone IC50 = 2.00 +/- 0.24 uM). In general terms: Tetrazolium assays rely on reduction of a dye to a coloured formazan, in cell work by metabolically active cells.
The nature of data set [2]: Modulatory activity at P-gp assessed as doxorubicin IC50 in human K562 cells at 0.1 uM after 72 hrs by MTT assay (Rvb doxorubicin alone IC50 = 0.023 +/- 0.004 uM).
Data set [3] is described as follows: Modulatory activity at P-gp assessed as doxorubicin IC50 in human K562/DOX cells at 0.1 uM after 72 hrs by MTT assay (Rvb doxorubicin alone IC50 = 2.00 +/- 0.24 uM).
A short description of data set [4]: Modulatory activity at P-gp assessed as doxorubicin IC50 in human K562/DOX cells at 3 uM after 72 hrs by MTT assay (Rvb doxorubicin alone IC50 = 2.00 +/- 0.24 uM).
Data set [5] is described as follows: Modulatory activity at P-gp assessed as doxorubicin IC50 in human K562 cells at 3 uM after 72 hrs by MTT assay (Rvb doxorubicin alone IC50 = 0.023 +/- 0.004 uM).
A short description of data set [6]: Modulatory activity at P-gp assessed as doxorubicin IC50 in human K562 cells at 1 uM after 72 hrs by MTT assay (Rvb doxorubicin alone IC50 = 0.023 +/- 0.004 uM).

With `COc1cc(/C=C/C(=O)OCCCN(C)CCCCCOC(=O)c2c3ccccc3cc3ccccc23)cc(OC)c1OC`, the IC50 (in general, the concentration that gives 50% inhibition) in data set [1] is 320 nM; in data set [2], 11 nM; in data set [3] it was 620 nM; in data set [4], 170 nM; in data set [5], 51 nM; in data set [6], 12 nM.
Consider `COc1cc(/C=C/C(=O)OCCCCN(C)CCCCOC(=O)c2c3ccccc3cc3ccccc23)cc(OC)c1OC`, for which the IC50 stood at 230 nM in data set [1]; 22 nM in data set [2]; 830 nM in data set [3]; 63 nM in data set [4]; 19 nM in data set [5]; 41 nM in data set [6].
For the compound `COc1cc(/C=C/C(=O)OCCCCCN(C)CCCOC(=O)c2c3ccccc3cc3ccccc23)cc(OC)c1OC`, the IC50 in data set [1] turned out to be 60 nM; in data set [2], 30 nM; in data set [3], 300 nM; in data set [4], 35 nM; in data set [5], 18 nM.

(Values after BindingDB's records for doi:10.1016/j.ejmech.2014.09.084 (University of Florence, 2014).)
